Test results published in PubChem BioAssay AID1963434 (Molecular Pharmacology Branch, DTP, NCI, 2024).

Tested on: 755483-174-R-J1-PDC complex spheroid growth, percent test/control
Experiment: Anticancer human tumor 755483-174-R-J1-PDC patient-derived rhabdomyosarcoma cell line growth inhibition [Asc]
Conditions: for IC50: curve of first compound; for viability, T/C: stronger effect = lower value
Description: Multicellular complex tumor spheroid response to apoptosis pathway targeting inhibitors Alrizomadlin, Pelcitoclax, and Dasminapant in combination with a variety of drugs and investigational agents in selected tumor cell lines
The MDM2 inhibitor alrizomadlin, the Bcl-2/Bcl-xL inhibitor pelcitoclax, and the IAPs inhibitor dasminapant were evaluated both individually and in combination with standard of care and investigational anticancer small molecules within a complex spheroid model of solid tumors. . Complex spheroids include a stromal component modeled by human endothelial cells (HUVEC) and fibroblasts modeled by human mesenchymal stem cells (MSCs). The concentration ranges selected for each drug and investigational agent were based upon clinically achievable concentrations if the clinical Cmax of the agent was known.
Compounds. The drugs and investigational agents: alrizomadlin (APG-115; NSC831270), pelcitoclax (APG-1252; NSC835773), dasminapant (APG-1387;NSC834197), TAK-243 (NSC785004), copanlisib (NSC809693), olaparib (NSC753686), talazoparib (NSC767125), cobimetinib (NSC 768068), eltanexor (KPT-8602, NSC 794443), abemaciclib (NSC 768073), sotorasib (NSC818433), adagrasib (NSC 831453), MRTX-1133 (NSC 836407), Iadademestat (ORY1001, NSC 806812), and RMC-4630 (NSC839698), were obtained from the NCI Developmental Therapeutics Program Chemical Repository. The FDA-approved anticancer drug set is available from the Developmental Therapeutics Program at https://dtp.cancer.gov/organization/dscb/obtaining/available plates.htm. […] The stock solutions were prepared in dimethyl sulfoxide (DMSO, Sigma-Aldrich, St. Louis, MO, cat. D2650) at 800-fold the tested concentration and stored at -70 degrees C prior to their use. All drugs and investigational agents were tested over a range starting from a high concentration at or near the clinical Cmax and decreasing in half-log increments. If the clinical Cmax for an agent had not been determined, the highest concentration tested was 10 microM.
The patient-derived cancer (PDC) cell lines include five colon adenocarcinomas: 186277-243-T-J2-PDC, 616215-338-R-J1-PDC, 439559-082-T-J2-PDC, 463943-066-T-J2-PDC, and 519858-162-T-J1-PDC; three pancreatic carcinomas: 323965-272-R-J2-PDC, 521955-158-R6-J3-PDC, and 521955-158-R2-J5-PDC; two uterine sarcomas: 327498-152-R-J2-PDC and 993429-296-R-J1-PDC; two rhabdomyosarcomas: 755483-174-R-J1-PDC and 772245-204-R-J1-PDC; two soft tissue sarcomas: 126254-015-R-J1-PDC and 494315-158-R-J1-PDC; two malignant fibrous histiocytomas: 317291-083-R-J1-PDC and 596521-263-R-J1-PDC; two breast carcinomas: 171881-019-R-J1-PDC and 885512-296-R-J2-PDC; and one ovarian carcinoma: 6556581-035-R-J-PDC were obtained from the NCI PDMR, (https://pdmr.cancer.gov). The established cell lines HSSY-2 synovial sarcoma (RRID:CVCL 8719), SYO-1 synovial sarcoma (RRID:CVCL_7146), MPNST malignant peripheral neural sheath tumor were obtained from the Sloan Kettering Institute. The following established cell lines were purchased from the American Type Culture Collection (ATCC, Manassas, VA), Sor the received from the NCI repository:, PANC-1 pancreatic carcinoma (CRL-1469, RRID:CVCL_0480), OVCAR-5 ovarian carcinoma (RRID:CVCL_1628), OVCAR-8 ovarian carcinoma (RRID:CVCL_1629), , MCF-7 breast carcinoma (CRL-12584, RRID:CVCL_0031), MDA-MB-231 breast carcinoma (CRL-12532, RRID:CVCL_0062), NCI-H1876 small cell lung carcinoma (CRL-5902, RRID:CVCL_1503), NCI-H510A small cell lung carcinoma (HTB-184, RRID:CVCL_1565), NCI-H1417 (CRL-5869, RRID:CVCL_1469), and NCI-H196 small cell lung carcinoma (CRL-5823, RRID:CVCL_1509). Dr. Peter Houghton (Greehey Children's Cancer Research Institute, University of Texas Health Science Center, San Antonio, TX) provided Rh-18 rhabdomyosarcoma (RRID:CVCL_1659). Pooled donor human umbilical vein endothelial cells (HUVEC, Lonza, cat. CC-2519) and human mesenchymal stem cells (hMSC, Lonza, cat. PT-2501) were purchased from Lonza (Walkersville, MD).
Cell Culture. […]
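Further: spheroids exposed to compounds for seven days before readout.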

IC50 (second compound 0.03 µM): > 1000 nM | IC50 (second compound 0.0949 µM): > 1000 nM | IC50 (second compound 0.3 µM): > 1000 nM | IC50 (second compound 0.949 µM): > 1000 nM | IC50 (second compound 3 µM): > 1000 nM
SMILES: CCN1CCN(Cc2ccc(Nc3ncc(F)c(-c4cc(F)c5nc(C)n(C(C)C)c5c4)n3)nc2)CC1 + CCN1C(C(=O)NC23CCC(C(=O)O)(CC2)CC3)C(c2cccc(Cl)c2F)C2(C(=O)Nc3cc(Cl)ccc32)C12CCCCC2
viability, T/C (second compound 0.03 µM, first compound 0.00316 µM): 103% | viability, T/C (second compound 0.03 µM, first compound 0.01 µM): 97.3% | viability, T/C (second compound 0.03 µM, first compound 0.0316 µM): 112% | viability, T/C (second compound 0.03 µM, first compound 0.1 µM): 127% | viability, T/C (second compound 0.03 µM, first compound 0.316 µM): 108% | viability, T/C (second compound 0.03 µM, first compound 1 µM): 133% | viability, T/C (second compound 0.0949 µM, first compound 0.00316 µM): 89.3% | viability, T/C (second compound 0.0949 µM, first compound 0.01 µM): 116% | viability, T/C (second compound 0.0949 µM, first compound 0.0316 µM): 115% | viability, T/C (second compound 0.0949 µM, first compound 0.1 µM): 109% | viability, T/C (second compound 0.0949 µM, first compound 0.316 µM): 138% | viability, T/C (second compound 0.0949 µM, first compound 1 µM): 116% | viability, T/C (second compound 0.3 µM, first compound 0.00316 µM): 87% | viability, T/C (second compound 0.3 µM, first compound 0.01 µM): 103% | viability, T/C (second compound 0.3 µM, first compound 0.0316 µM): 124% | viability, T/C (second compound 0.3 µM, first compound 0.1 µM): 113% | viability, T/C (second compound 0.3 µM, first compound 0.316 µM): 124% | viability, T/C (second compound 0.3 µM, first compound 1 µM): 127% | viability, T/C (second compound 0.949 µM, first compound 0.00316 µM): 98.7% | viability, T/C (second compound 0.949 µM, first compound 0.01 µM): 114% | viability, T/C (second compound 0.949 µM, first compound 0.0316 µM): 122% | viability, T/C (second compound 0.949 µM, first compound 0.1 µM): 86.8% | viability, T/C (second compound 0.949 µM, first compound 0.316 µM): 129% | viability, T/C (second compound 0.949 µM, first compound 1 µM): 137% | viability, T/C (second compound 3 µM, first compound 0.00316 µM): 107% | viability, T/C (second compound 3 µM, first compound 0.01 µM): 109% | viability, T/C (second compound 3 µM, first compound 0.0316 µM): 98.6% | viability, T/C (second compound 3 µM, first compound 0.1 µM): 121% | viability, T/C (second compound 3 µM, first compound 0.316 µM): 126% | viability, T/C (second compound 3 µM, first compound 1 µM): 113%
